Measured values from US20240376094A2, “SELECTIVE BCL-XL PROTAC COMPOUNDS AND METHODS OF USE” (Les Laboratoires Servier, priority 2021, published 2024).

How the values were obtained:
HiBiT-tagged BCL-xL = target: T1, HiBiT-tagged BCL-xL (Homo sapiens, UniProt Q07817); test: NCI-H1650 BCL-xL protein levels, Nano-Glo HiBiT Lytic Detection; format: cell-based; conditions: NCI-H1650 expressing HiBiT-tagged BCL-xL, overnight incubation, read-out: Bcl-xl HIBIT NCIH1650 DC50
T1 construct: expressed in transfected cells; host or cells: NCI-H1650 (ATCC No. CRL-5883), engineered HiBiT cell line
T1 sequence (Q07817 whole entry): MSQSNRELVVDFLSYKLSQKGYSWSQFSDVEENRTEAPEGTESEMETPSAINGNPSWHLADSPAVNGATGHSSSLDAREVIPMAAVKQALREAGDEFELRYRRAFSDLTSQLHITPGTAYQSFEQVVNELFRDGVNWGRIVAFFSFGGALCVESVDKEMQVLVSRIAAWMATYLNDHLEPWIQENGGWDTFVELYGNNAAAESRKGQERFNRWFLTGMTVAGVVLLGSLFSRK
Procedure: (§1) The ability of the BCL-xL degrader low molecular weight compounds to degrade BCL-xL protein was assessed using the Promega Nano-Glo® HiBiT Lytic Detection System. The NCI-H1650 (ATCC No. CRL-5883) was engineered to express HiBiT-tagged BCL-xL. The NCI-H1650 HiBiT cell line was cultured in media that is optimal for their growth at 5% CO2, 37° C. in a tissue culture incubator. Prior to seeding for the protein level assay, the cells were split at least 2 days before the assay to ensure optimal growth density. On the day of seeding, cells were lifted off tissue culture flasks using 0.25% trypsin. Cell viability and cell density were determined using a cell counter (Vi-Cell XR Cell Viability Analyzer, Beckman Coulter). Cells with higher than 85% viability were seeded in white clear bottom 384-well plates (Greiner cat #781098) at a density of 5000 cells per well in 30 μL of standard growth media. Plates were incubated at 37° C. overnight in a tissue culture incubator.
(§2) The BCL-xL degrader low molecular weight compounds were prepared to desired concentrations. A series of 10 dilutions were made for each prepared compound. The prepared compounds were then added to the cells resulting in final concentrations of 0.508 nM-10 μM. An acoustic transfer device (Echo555, Beckman Coulter) was used to add the compounds to the cells. Each treatment was tested in triplicate assay plates. Plates were incubated at 37° C. overnight in a tissue culture incubator.
BCL-xL degradation was assessed through the addition of 30 μL of Nano-Glo® HiBiT Lytic Reagent (Promega, cat #N3040), a reagent which lyses cells and contains a furimazine substrate and the large subunit (LgBiT) used in NanoLuc® Binary Technology. The LgBiT subunit having high affinity to a HiBiT-tagged protein will bind HiBiT, if present, resulting in complex formation of a luminescent NanoBiT® enzyme. This reaction will emit a luminescent signal proportional to the amount of HiBiT-tagged BCL-xL present in the cell lysate. Plates were incubated at room temperature for 20 minutes to stabilize luminescent signals prior to reading using a luminescence reader (PHERAstar FSX Microplate Reader, BMG Labtech).
To evaluate the effect of the drug treatments, luminescent counts from wells containing untreated cells (100% HiBiT-tagged BCL-xL) were used to normalize treated samples. The concentrations of treatment required to inhibit 50% were calculated using a four parameter logistic regression equation.

[1] = system: EBC-1 lung cancer cell line; test: EBC-1 cell proliferation, CellTiter-Glo assay; format: cell-based; conditions: Homo sapiens, 120 h; Ebc-1 cell viability, CTG assay, 5 days of treatment; read-out: CTG 5 day Ebc1 GI50
Procedure: as §1, with “to inhibit cell proliferation and survival” for “to degrade BCL-xL protein”, “Promega CellTiter-Glo® proliferation assay on the EBC-1 lung cancer” for “Promega Nano-Glo® HiBiT Lytic Detection System. The NCI-H1650 (ATCC No. CRL-5883) was engineered to express HiBiT-tagged BCL-xL. The NCI-H1650 HiBiT”, “line (RCB1965, obtained from RIKEN.) The cells were” for “line was”, “the proliferation” for “the protein level”, “of 1000” for “of 5000”, “in 50” for “in 30”
as §2, with “overnight or for 5 days” for “overnight”, “incubator. The ability of the compounds to inhibit cell proliferation and survival was assessed using the Promega CellTiter-Glo® proliferation assay. Plates were incubated at room temperature for 20 minutes to stabilize luminescent signals prior to reading using a multimode plate reader (PHERAstar FSX Microplate Reader, BMG Labtech).” for “incubator.”
To evaluate the effect of the compound treatments, luminescent counts of untreated cells were taken the day after seeding (Day 0 readings), and after 5 days of treatment (Day 5 readings). The Day 5 readings of the untreated cells were compared to the Day 0 readings. Assays with at least one cell doubling during the incubation period were considered valid. To evaluate the effect of the drug treatments, luminescent counts from wells containing untreated cells (100% viability) were used to normalize treated samples. The concentrations of treatment required to inhibit 50% of cell growth or survival ([…]) were calculated using a four parameter logistic regression equation.

Row | Structure (SMILES) | DC50 (HiBiT-tagged BCL-xL) | GI50 [1]
1 | Cc1ncsc1-c1ccc([C@H](C)NC(=O)[C@@H]2C[C@@H](O)CN2C(=O)[C@@H](NC(=O)[C@H]2CC[C@H](NC(=O)c3nc(N4CCCc5c4nnc(Nc4nc6ccccc6s4)c5C)ccc3-c3cnn(CC45CC6(C)CC(C)(C4)CC(OCCN4CCCC4)(C6)C5)c3C)CC2)C(C)(C)C)cc1 [Example 162, 6-(3-(benzo[d]thiazol-2-ylamino)-4-methyl-6,7-dihydropyrido[2,3-c]pyridazin-8(5H)-yl)-3-(1-(((1r,3R,5S,7s)-3,5-dimethyl-7-(2-(pyrrolidin-1-yl)ethoxy)adamantan-1-yl)methyl)-5-methyl-1H-pyrazol-4-yl)-N-((1S,4R)-4-(((S)-1-((2S,4R)-4-hydroxy-2-(((S)-1-(4-(4-methylthiazol-5-yl)phenyl)ethyl)carbamoyl)pyrrolidin-1-yl)-3,3-dimethyl-1-oxobutan-2-yl)carbamoyl)cyclohexyl)picolinamide] | > 1670 nM | 222 nM
2 | Cc1ncsc1-c1ccc([C@H](C)NC(=O)[C@@H]2C[C@@H](O)CN2C(=O)[C@@H](NC(=O)C[C@H]2CC[C@@H](NC(=O)c3nc(N4CCCc5c4nnc(Nc4nc6ccccc6s4)c5C)ccc3-c3cnn(CC45CC6(C)CC(C)(C4)CC(OCCN4CCCC4)(C6)C5)c3C)CC2)C(C)(C)C)cc1 [Example 163, 6-(3-(benzo[d]thiazol-2-ylamino)-4-methyl-6,7-dihydropyrido[2,3-c]pyridazin-8(5H)-yl)-3-(1-(((1r,3R,5S,7s)-3,5-dimethyl-7-(2-(pyrrolidin-1-yl)ethoxy)adamantan-1-yl)methyl)-5-methyl-1H-pyrazol-4-yl)-N-((1R,4S)-4-(2-(((S)-1-((2S,4R)-4-hydroxy-2-(((S)-1-(4-(4-methylthiazol-5-yl)phenyl)ethyl)carbamoyl)pyrrolidin-1-yl)-3,3-dimethyl-1-oxobutan-2-yl)amino)-2-oxoethyl)cyclohexyl)picolinamide] | 6 nM | 22 nM
3 | Cc1ncsc1-c1ccc([C@H](C)NC(=O)[C@@H]2C[C@@H](O)CN2C(=O)[C@@H](NC(=O)C[C@H]2CC[C@H](NC(=O)c3nc(N4CCCc5c4nnc(Nc4nc6ccccc6s4)c5C)ccc3-c3cnn(CC45CC6(C)CC(C)(C4)CC(OCCN4CCCC4)(C6)C5)c3C)CC2)C(C)(C)C)cc1 [Example 164, 6-(3-(benzo[d]thiazol-2-ylamino)-4-methyl-6,7-dihydropyrido[2,3-c]pyridazin-8(5H)-yl)-3-(1-(((1r,3R,5S,7s)-3,5-dimethyl-7-(2-(pyrrolidin-1-yl)ethoxy)adamantan-1-yl)methyl)-5-methyl-1H-pyrazol-4-yl)-N-((1S,4R)-4-(2-(((S)-1-((2S,4R)-4-hydroxy-2-(((S)-1-(4-(4-methylthiazol-5-yl)phenyl)ethyl)carbamoyl)pyrrolidin-1-yl)-3,3-dimethyl-1-oxobutan-2-yl)amino)-2-oxoethyl)cyclohexyl)picolinamide] | 2 nM | 35 nM
4 | Cc1ncsc1-c1ccc([C@H](C)NC(=O)[C@@H]2C[C@@H](O)CN2C(=O)[C@@H](NC(=O)[C@H]2C[C@H](NC(=O)c3nc(N4CCCc5c4nnc(Nc4nc6ccccc6s4)c5C)ccc3-c3cnn(CC45CC6(C)CC(C)(C4)CC(OCCN4CCCC4)(C6)C5)c3C)C2)C(C)(C)C)cc1 [Example 165, 6-(3-(benzo[d]thiazol-2-ylamino)-4-methyl-6,7-dihydropyrido[2,3-c]pyridazin-8(5H)-yl)-3-(1-(((1r,3R,5S,7s)-3,5-dimethyl-7-(2-(pyrrolidin-1-yl)ethoxy)adamantan-1-yl)methyl)-5-methyl-1H-pyrazol-4-yl)-N-((1S,3R)-3-(((S)-1-((2S,4R)-4-hydroxy-2-(((S)-1-(4-(4-methylthiazol-5-yl)phenyl)ethyl)carbamoyl)pyrrolidin-1-yl)-3,3-dimethyl-1-oxobutan-2-yl)carbamoyl)cyclobutyl)picolinamide] | > 1670 nM | 35 nM
5 | Cc1ncsc1-c1ccc([C@H](C)NC(=O)[C@@H]2C[C@@H](O)CN2C(=O)[C@@H](NC(=O)CCOC2CCN(C(=O)c3nc(N4CCCc5c4nnc(Nc4nc6ccccc6s4)c5C)ccc3-c3cnn(CC45CC6(C)CC(C)(C4)CC(OCCN4CCCC4)(C6)C5)c3C)CC2)C(C)(C)C)cc1 [Example 167, (2S,4R)-1-((S)-2-(3-((1-(6-(3-(benzo[d]thiazol-2-ylamino)-4-methyl-6,7-dihydropyrido[2,3-c]pyridazin-8(5H)-yl)-3-(1-(((1r,3R,5S,7s)-3,5-dimethyl-7-(2-(pyrrolidin-1-yl)ethoxy)adamantan-1-yl)methyl)-5-methyl-1H-pyrazol-4-yl)picolinoyl)piperidin-4-yl)oxy)propanamido)-3,3-dimethylbutanoyl)-4-hydroxy-N—((S)-1-(4-(4-methylthiazol-5-yl)phenyl)ethyl)pyrrolidine-2-carboxamide] | 2 nM | 136 nM

Molecules with a lower DC50 (HiBiT-tagged BCL-xL), results first:

Row | DC50 (HiBiT-tagged BCL-xL) | GI50 [1] | Structure (SMILES)
6 | 1 nM | 68 nM | Cc1ncsc1-c1ccc([C@H](C)NC(=O)[C@@H]2C[C@@H](O)CN2C(=O)[C@@H](NC(=O)COC2CCN(C(=O)c3nc(N4CCCc5c4nnc(Nc4nc6ccccc6s4)c5C)ccc3-c3cnn(CC45CC6(C)CC(C)(C4)CC(OCCN4CCCC4)(C6)C5)c3C)CC2)C(C)(C)C)cc1 [Example 166, (2S,4R)-1-((S)-2-(2-((1-(6-(3-(benzo[d]thiazol-2-ylamino)-4-methyl-6,7-dihydropyrido[2,3-c]pyridazin-8(5H)-yl)-3-(1-(((1r,3R,5S,7s)-3,5-dimethyl-7-(2-(pyrrolidin-1-yl)ethoxy)adamantan-1-yl)methyl)-5-methyl-1H-pyrazol-4-yl)picolinoyl)piperidin-4-yl)oxy)acetamido)-3,3-dimethylbutanoyl)-4-hydroxy-N—((S)-1-(4-(4-methylthiazol-5-yl)phenyl)ethyl)pyrrolidine-2-carboxamide]
7 | 0.4 nM | 8 nM | Cc1ncsc1-c1ccc([C@H](C)NC(=O)[C@@H]2C[C@@H](O)CN2C(=O)C(NC(=O)CCCCCCCCN(C)C(=O)c2nc(N3CCCc4c3nnc(Nc3nc5ccccc5s3)c4C)ccc2-c2cnn(CC34CC5(C)CC(C)(C3)CC(OCCN3CCCC3)(C5)C4)c2C)C(C)(C)C)cc1 (stereo partly drawn) [Example 161, 6-(3-(benzo[d]thiazol-2-ylamino)-4-methyl-6,7-dihydropyrido[2,3-c]pyridazin-8(5H)-yl)-3-(1-(((1r,3R,5S,7s)-3,5-dimethyl-7-(2-(pyrrolidin-1-yl)ethoxy)adamantan-1-yl)methyl)-5-methyl-1H-pyrazol-4-yl)-N-(9-(((S)-1-((2S,4R)-4-hydroxy-2-(((S)-1-(4-(4-methylthiazol-5-yl)phenyl)ethyl)carbamoyl)pyrrolidin-1-yl)-3,3-dimethyl-1-oxobutan-2-yl)amino)-9-oxononyl)-N-methylpicolinamide]
